Assay results taken from US6855730B2, “3-methylidenyl-2-indolinone modulators of protein kinase” (Sugen, Inc., priority 1998, dated 2005).
pIC50: −log10 of the molar value.

Experiments:
PDGFR-β = target: T1, PDGFR-β (Homo sapiens, UniProt P09619); test: Biochemical PDGFR assay (ELISA, PDGFR-β expressing NIH 3T3 cell lysate); details: read-out: bio PDGF IC50
T1 construct: host or cells: NIH 3T3
Description: This assay measures the in vitro kinase activity of PDGFR using ELISA.
Unless otherwise noted, the preparation of working solution-of the following reagents is the same as that for the Biochemical EGFR assay, above. • 1. […] 28D4C10 monoclonal anti-PDGFR antibody (Biochemistry Lab, SUGEN, Inc.). • 3. PBS (Dulbecco's Phosphate-Buffered Saline, Gibco Catalog No. 450-1300EB) • 4. TBST Buffer. • 5. Blocking Buffer. • 6. PDGFR-β expressing NIH 3T3 cell lysate (Screening Lab, SUGEN, Inc.). • 7. TBS Buffer. • 8. TBS+10% DMSO. • 9. […] MnCl2. • 11. Kinase buffer phosphorylation mix.
• 12. NUNC 96-well V bottom polypropylene plates (Applied Scientific Cat. No. AS-72092). • 13. Ethylenediaminetetraacetic acid (EDTA). • 14. Rabbit polyclonal anti-phosphotyrosine serum (Biochemistry Lab, SUGEN, Inc.). • 15. Goat anti-rabbit IgG peroxidase conjugate (Biosource Cat. No. ALI0404). • 16. 2,2′-azino-bis(3-ethylbenzthiazoline-6-sulfonic acid) (ABTS, Sigma Cat. No. A-1888). • 17. Hydrogen peroxide 30% solution (Fisher Cat. No. H325). • 18. ABTS/H2O2. • 19. 0.2 M HCl.
Procedure • 1. Coat Corning 96 well ELISA plates with 0.5 μg 28D4C10 in 100 μl PBS per well, store overnight at 4° C. • 2. Remove unbound 28D4C10 from wells by inverting plate to remove liquid. Wash 1× with dH2O. Pat the plate on a paper towel to remove excess liquid. • 3. Add 150 μl of Blocking Buffer to each well. Incubate for 30 min. at room temperature with shaking. • 4. Wash plate 3× with deionized water, then once with TBST. Pat plate on a paper towel to remove excess liquid and bubbles. • 5. Dilute lysate in HNTG (10 μg lysate/100 μl HNTG) • 6. Add 100 μl of diluted lysate to each well. Shake at room temperature for 60 min. • 7. Wash plates as described in 4, above. • 8. Add 80 μl working kinase buffer mix to ELISA plate containing captured PDGFR. • 9. Dilute test compound 1:10 in TBS in 96-well polypropylene plates (i.e., 10 μl compound+90 μl TBS). • 10. Add 10 μl diluted test compound to ELISA plate. […] Incubate for 30 minutes while shaking at room temperature. • 12. Add 10 μl ATP directly to all wells except negative control well (final well volume should be approximately 100 μl with 20 μM ATP in each well.) Incubate 30 minutes while shaking. • 13. After 30 minutes, stop reaction by adding 10 μl of 200 mM EDTA (pH 8.0) to each well. • 14. Wash 4× with deionized water, twice with TBST. • 15. Add 100 μl anti-phosphotyrosine (1:3000 dilution in TBST) per well. Incubate 30-45 min. at room temperature, with shaking. • 16. Wash as described in 4, above. • 17. Add 100 μl Biosource Goat anti-rabbit IgG peroxidase conjugate (1:2000 dilution in TBST) to each well. Incubate 30 min. at room temperature, with shaking. • 18. Wash as described in 4, above. • 19. Add 100 μl of ABTS/H2O2 solution to each well. • 20. Incubate 10 to 30 minutes with shaking. Remove any bubbles. • 21. If necessary stop reaction with the addition of 100 μl 0.2 M HCl per well. • 22. Read assay on Dynatech MR7000 ELISA reader: test filter: 410 nM, reference filter: 630 nM.

EGFR = EGFR (Homo sapiens, UniProt P00533); test: Biochemical EGFR assay (ELISA, A431 cell lysate); design: A431 cell lysate (Screening Lab, SUGEN, Inc.); host or cells: A431; details: read-out: bio EGFr IC50
EGFR, sequence (P00533 25-1210): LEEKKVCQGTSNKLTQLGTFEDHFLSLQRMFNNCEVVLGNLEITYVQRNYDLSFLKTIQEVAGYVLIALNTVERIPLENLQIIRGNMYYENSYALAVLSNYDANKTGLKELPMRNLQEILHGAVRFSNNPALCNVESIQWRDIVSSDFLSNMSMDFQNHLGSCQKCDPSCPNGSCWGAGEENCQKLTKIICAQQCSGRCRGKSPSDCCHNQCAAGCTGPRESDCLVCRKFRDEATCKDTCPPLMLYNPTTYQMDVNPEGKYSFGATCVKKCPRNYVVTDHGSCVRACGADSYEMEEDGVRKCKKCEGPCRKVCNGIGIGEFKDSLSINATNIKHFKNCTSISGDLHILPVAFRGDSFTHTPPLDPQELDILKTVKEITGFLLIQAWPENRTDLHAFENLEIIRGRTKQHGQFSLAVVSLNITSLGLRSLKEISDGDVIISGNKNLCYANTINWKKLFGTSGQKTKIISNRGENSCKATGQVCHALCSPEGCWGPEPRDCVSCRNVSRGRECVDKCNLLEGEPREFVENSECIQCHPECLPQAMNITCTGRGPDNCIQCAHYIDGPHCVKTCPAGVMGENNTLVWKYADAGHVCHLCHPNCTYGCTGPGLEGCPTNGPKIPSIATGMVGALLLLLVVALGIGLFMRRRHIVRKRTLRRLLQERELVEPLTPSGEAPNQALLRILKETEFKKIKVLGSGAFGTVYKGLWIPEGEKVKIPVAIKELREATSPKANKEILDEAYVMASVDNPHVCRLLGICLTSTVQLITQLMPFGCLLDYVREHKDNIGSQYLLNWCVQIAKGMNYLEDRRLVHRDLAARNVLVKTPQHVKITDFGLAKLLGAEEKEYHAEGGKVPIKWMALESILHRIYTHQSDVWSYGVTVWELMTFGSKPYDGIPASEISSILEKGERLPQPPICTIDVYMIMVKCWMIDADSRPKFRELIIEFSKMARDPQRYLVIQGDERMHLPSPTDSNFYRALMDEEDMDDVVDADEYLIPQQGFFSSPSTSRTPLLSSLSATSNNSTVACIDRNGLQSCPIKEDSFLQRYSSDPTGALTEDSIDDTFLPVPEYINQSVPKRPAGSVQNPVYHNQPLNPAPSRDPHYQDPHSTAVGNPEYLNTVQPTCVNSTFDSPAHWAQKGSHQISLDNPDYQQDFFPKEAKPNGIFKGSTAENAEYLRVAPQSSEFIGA
Method: This assay measures the in vitro kinase activity of EGFR using ELISA.
Materials and Reagents • 1. […] SUMO1 monoclonal anti-EGFR antibody (Biochemistry Lab, SUGEN, Inc.). • 3. PBS (Dulbecco's Phosphate-Buffered Saline, Gibco Catalog No. 450-1300EB). • 4. TBST Buffer
• 6. A431 cell lysate (Screening Lab, SUGEN, Inc.) • 7. TBS Buffer:
Prepare a 1.0 mM solution in dH2O. This reagent should be made up immediately prior to use and kept on ice. • 10. MnCl2.
Prepare a 1.0 M stock solution in dH2O. • 11. ATP/MnCl2 phosphorylation mix
This reagent should be prepared immediately before use and kept on ice. • 12. NUNC 96-well V bottom polypropylene plates (Applied Scientific Cat. No. AS-72092). • 13. Ethylenediaminetetraacetic acid (EDTA)
Prepare 200 mM working solution in dH2O. Adjust to pH 8.0 with 10 N NaOH. • 14. Rabbit polyclonal anti-phosphotyrosine serum (Biochemistry Lab, SUGEN, Inc.) • 15. Goat anti-rabbit IgG peroxidase conjugate (Biosource Cat. No. ALI0404) • 16. ABTS (2,2′-azino-bis(3-ethylbenzthiazoline-6-sulfonic acid), Sigma Cat. No. A-1888).
Mix first two ingredients in about 900 ml dH2O, adjust pH to 4.0 with phosphoric acid. Add ABTS, cover, let sit about 0.5 hr., filter. The solution should be kept in the dark at 4° C. until ready to use. • 17. Hydrogen peroxide 30% solution (Fisher Cat. No. H325) • 18. ABTS/H2O2 • Mix 15 ml ABTS solution and 2.0 μl H2O2. Prepare 5 minutes before use. • 19. 0.2 M HCl
Procedure • 1. Coat Corning 96 well ELISA plates with 0.5 μg SUMO1 in 100 μl PBS per well, store overnight at 4° C. • 2. Remove unbound SUMO1 from wells by inverting plate to remove liquid., Wash 1× with dH2O. Pat the plate on a paper towel to remove excess liquid. • 3. Add 150 μl of Blocking Buffer to each well. Incubate for 30 min. at room temperature with shaking. • 4. Wash plate 3× with deionized water, then once with TBST. Pat plate on a paper towel to remove excess liquid and bubbles. • 5. Dilute lysate in PBS (7 μg lysate/100 μl PBS). • 6. Add 100 μl of diluted lysate to each well. Shake at room temperature for 60 min. • 7. Wash plates as described in 4, above. • 8. Add 120 μl TBS to ELISA plate containing captured EGFR. • 9. Dilute test compound 1:10 in TBS in 96-well polypropylene plates (i.e. 10 μl compound+90 μl TBS). • 10. Add 13.5 μl diluted test compound to ELISA plate. […] Incubate for 30 minutes while shaking at room temperature. • 12. […] After 5 minutes, stop reaction by adding 16.5 μl of 200 mM EDTA (pH 8.0) to each well, shaking continuously. After the EDTA has been added, shake for 1 min. • 14. Wash 4× with deionized water, twice with TBST. • 15. Add 100 μl anti-phosphotyrosine (1:3000 dilution in TBST) per well. Incubate 30-45 min. at room temperature, with shaking. • 16. Wash as described in 4, above. • 17. Add 100 μl Biosource Goat anti-rabbit IgG peroxidase conjugate (1:2000 dilution in TBST) to each well. Incubate 30 min. at room temperature, with shaking. • 18. Wash as described in 4, above. • 19. Add 100 μl of ABTS/H2O2 solution to each well. • 20. Incubate 5 to 10 minutes with shaking. Remove any bubbles. • 21. If necessary stop reaction with the addition of 100 μl 1 0.2 M HCl per well. • 22. Read assay on Dynatech MR7000 ELISA reader. Test Filter: 410 nM Reference Filter: 630 Nm.

T1 sequence (P09619 33-1106): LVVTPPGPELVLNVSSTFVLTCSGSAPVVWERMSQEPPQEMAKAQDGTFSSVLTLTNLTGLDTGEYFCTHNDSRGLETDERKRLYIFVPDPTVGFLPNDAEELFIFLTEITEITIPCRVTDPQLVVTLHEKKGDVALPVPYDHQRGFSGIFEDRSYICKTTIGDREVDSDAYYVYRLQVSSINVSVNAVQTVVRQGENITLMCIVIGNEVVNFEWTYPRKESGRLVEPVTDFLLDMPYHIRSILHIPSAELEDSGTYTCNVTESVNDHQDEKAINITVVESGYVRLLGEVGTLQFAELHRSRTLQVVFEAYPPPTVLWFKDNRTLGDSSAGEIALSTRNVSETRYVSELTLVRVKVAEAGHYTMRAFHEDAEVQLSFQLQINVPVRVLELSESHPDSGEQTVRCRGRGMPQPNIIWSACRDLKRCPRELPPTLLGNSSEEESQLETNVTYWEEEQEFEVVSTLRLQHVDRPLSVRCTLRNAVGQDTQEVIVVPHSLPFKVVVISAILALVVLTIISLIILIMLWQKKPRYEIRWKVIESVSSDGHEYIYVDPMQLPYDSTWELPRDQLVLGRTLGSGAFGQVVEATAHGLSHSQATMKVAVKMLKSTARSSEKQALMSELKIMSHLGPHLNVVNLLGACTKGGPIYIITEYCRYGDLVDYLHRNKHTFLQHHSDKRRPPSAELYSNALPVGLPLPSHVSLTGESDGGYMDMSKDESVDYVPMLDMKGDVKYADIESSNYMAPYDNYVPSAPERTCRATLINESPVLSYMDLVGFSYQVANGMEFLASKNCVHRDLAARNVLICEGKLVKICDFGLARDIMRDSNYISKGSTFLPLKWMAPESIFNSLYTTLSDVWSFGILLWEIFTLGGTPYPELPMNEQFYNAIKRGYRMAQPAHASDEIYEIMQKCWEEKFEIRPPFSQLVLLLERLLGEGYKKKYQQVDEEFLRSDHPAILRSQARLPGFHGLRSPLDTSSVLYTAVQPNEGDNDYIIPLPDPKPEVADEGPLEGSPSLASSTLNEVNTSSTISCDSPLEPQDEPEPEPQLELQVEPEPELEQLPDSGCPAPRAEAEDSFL

Row | SMILES | pIC50 (PDGFR-β) | pIC50 (EGFR)
1 | CCOC(=O)c1c(C)[nH]c(/C=C2\C(=O)Nc3ccc(C(=O)O)cc32)c1CCCN(C)C [Example 134, 3-[3-(3-Dimethylaminopropyl)-4-ethoxycarbonyl-5-methyl-1H-pyrrol-2-ylmethylene]-2-oxo-2,3-dihydro-1H-indole-5-carboxylic acid] | 5.31 | –
2 | CCOC(=O)c1c(C)[nH]c(/C=C2\C(=O)Nc3ccc(C(=O)O)cc32)c1CCCN1CCN(C)CC1 [Compound 129, 3-{4-Ethoxycarbonyl-5-methyl-3-(3-(4-methyl-piperazin-1-yl)-propyl]-1H-pyrrol-2-ylmethylene)-2-oxo-2,3-dihydro-1H-indole-5-carboxylic acid] | 4.50 | –
3 | O=C(O)CCc1c(C=C2C(=O)Nc3cc(N4CCOCC4)ccc32)[nH]c2c1CCCC2 [Example 209, 3-[2-(6-Morpholin-4-yl-2-oxo-1,2-dihydroindol-3-ylidenemethyl)-4,5,6,7-tetrahydro-1H-indol-3-yl]-propionic acid] | 4.07 | < 4.00
4 | CCOC(=O)c1c(C)[nH]c(/C=C2\C(=O)Nc3ccc(C(=O)O)cc32)c1CCCN1CCCC1 [Example 128, 3-[4-Ethoxycarbonyl-5-methyl-3-(3-pyrrolidin-1-ylpropyl)-1H-pyrrol-2-ylmethylene]-2oxo-2,3-dihydro-1H-indole-5-carboxylic acid] | 4.77 | –
5 | CCOC(=O)c1c(C)[nH]c(/C=C2\C(=O)Nc3cccc(CCO)c32)c1CCCN(C)C [Example 135, 4-(3-Dimethylaminopropyl)-5-[4-(2-hydroxyethyl)-2-oxo-1,2-dihydroindol-3-ylidenemethyl]-2-methyl-1H-pyrrole-3-carboxylic acid ethyl ester] | 6.30 | 6.72
6 | CCOC(=O)c1c(C)[nH]c(/C=C2\C(=O)Nc3ccc(OC)cc32)c1CCCN1CCCC1 [Example 127, 5-(5-Methoxy-2-oxo-1,2-dihydroindol-3-ylidenemethyl)-2-methyl-4-(3-pyrrolidin-1-ylpropyl)-1H-pyrrole-3-carboxylic acid ethyl ester] | 6.02 | –
7 | CCOC(=O)c1c(C)[nH]c(/C=C2\C(=O)Nc3ccc(C(=O)O)cc32)c1CCCN1CCOCC1 [Example 125, 3-[4-Ethoxycarbonyl-5-methyl-3-(3-morpholin-4-ylpropyl)-1H-pyrrol-2-ylmethylene]-2-oxo-2,3-dihydro-1H-indole-5-carboxylic acid] | 5.24 | –
